Assay results taken from patent publication US12721820B2, “Method of manufacturing peptide nanoparticles” (DuPage Medical Technology, Inc., priority 2020, dated 2026).
Values belong to the compound of their own block, whether it stands above or below them. Residues, ends and D or L forms follow the SMILES beside them. *: point of attachment. Myristoyl = CCCCCCCCCCCCCC(=O)*

Key:
[1] = Dissolution and storage stability of lyophilized powder; assay type: physicochemical
Description: The M3mP6 HLPN thus generated achieves a high M3mP6 peptide loading reaching >80% of total nanoparticle (mol/mol) (when such percentage of peptide was incorporated into during the process) and a high peptide concentration of >10 mM in injectable suspension. As analyzed by dynamic light scattering (DLS), the vast majority (99.8-100%) of these lipid-stabilized, PEG-coated M3mP6 HLPN have a particle size ranging between 6 nm to 25 nm (in different preparations) with occasional appearance of very small populations (0-0.2%) with larger diameters (~50-500 nm) (FIGS. 5A-5F).

[2] = test system: tail bleeding time in mice; test: Tail bleeding time; assay type: in vivo; conditions: same concentrations that inhibit occlusive thrombosis
in vivo = conditions: male, rat, iv
[3] = Rat 5-day infusion pharmacokinetic study; conditions: for AUC(0-t) / Tmax / clearance: plasma; for Css: steady-state plasma concentration during continuous IV infusion; for λz: terminal elimination rate constant
[4] = test system: laser-induced cremaster arteriolar thrombosis; test: Laser-induced cremaster arteriolar thrombosis model; assay type: in vivo, mice; conditions: laser-induced mouse cremaster arterial thrombosis model; for intravascular coagulation (fibrin clot formation / fibrin deposition): site of vascular injury
From the text: This example illustrates the comparative effect of M3mP6 HLPN (prepared substantially as described in Example 1) and cangrelor on intracvascular coagulation using laser-induced cremaster arteriolar thrombosis model in mice.
It was recently shown that outside-in signaling plays an important role in not only platelet thrombus formation but also intravascular coagulation under flow shear, an important aspect of thrombosis. […] Thus, we tested the effect of M3mP6 HLPN generated by vortex-mixing-lyophilization on platelet thrombus formation and intravascular coagulation in comparison with cangrelor using the laser-induced cremaster arterial thrombosis model.

- storage stability ([1]; lyophilized powder at room temperature (22° C.)): at least 2 weeks
- storage stability (similar DLS profile and pharmacological effect) ([1]; lyophilized powder stored at −20° C.): more than 18 months
- tail bleeding time [2]: without affecting bleeding
- half-life (in vivo): 234 min
- Vd ([3]; female, in vivo, iv): 0.2 L/kg
- AUC(0-t) ([3]; female, intravenous): 17600 µg·h/mL
- Tmax ([3]; female, intravenous): 4.8 min
- clearance ([3]; female, iv, CL CLAUC, clearance estimated from AUC0-∞): 0.7 mL/min/kg
- clearance ([3]; female, iv, CL CLcss, clearance estimated from Css): 0.8 mL/min/kg
- Css ([3]; female): 131.117 µg/mL
- t1/2-λz ([3]; female, terminal elimination half-life): 186 min
- λz ([3]; female): 0.223 h⁻¹
- Vλz ([3]; male, distribution volume): 0.46 L/kg
- AUC(0-t) ([3]; male, intravenous): 9490 µg·h/mL
- Tmax ([3]; male, intravenous): 4.8 min
- clearance ([3]; male, intravenous, CL CLAUC, clearance estimated from AUC0-∞): 1.4 mL/min/kg
- clearance ([3]; male, iv, CL CLcss, clearance estimated from Css): 1.3 mL/min/kg
- Css ([3]; male): 77.621 µg/mL
- λz ([3]; male): 0.177 h⁻¹
SMILES: CCCCCCCCCCCCCC(=O)N[C@@H](Cc1ccccc1)C(=O)N[C@@H](CCC(=O)O)C(=O)N[C@@H](CCC(=O)O)C(=O)N[C@@H](CCC(=O)O)C(=O)N[C@@H](CCCNC(=N)N)C(=O)N[C@@H](CC(C)C)C(=O)O [M3mP6, Myr-FEEERL (SEQ ID NO: 8)] (Myristoyl-FEEERL-OH; C-terminus assumed)

SMILES: CSCCNc1nc(SCCC(F)(F)F)nc2c1ncn2[C@@H]1O[C@H](COP(=O)(O)OP(=O)(O)C(Cl)(Cl)P(=O)(O)O)[C@@H](O)[C@H]1O [cangrelor]
- platelet thrombus formation [4]: similarly potent effects
- intravascular coagulation (fibrin clot formation / fibrin deposition) [4]: moderate effect
- intravascular coagulation (fibrin clot formation / fibrin deposition) ([4]; listed as Cangrelor): only partially inhibited
- platelet thrombus formation ([4]; listed as Cangrelor): similarly inhibited
